The target of assay [1] is T1, RpaR (Rhodopseudomonas palustris, UniProt Q6NCZ5). Put plainly: RpaR agonism reporter gene assay. The assay is classed as cell-based. The following applies: for EC50: EC50 value, dose response in R. palustris CGA814 reporter; for activation at 1 µM: read-out: Percent activation; for Percent activation: 1 μM synthetic ligand, relative to p-cAHL at 1 μM, triplicate of triplicate, error < ±10%; for Drop in agonistic activity relative to 1: compared with 2-fluoro cinnamoyl HL 1. (Reporter assays use an easily measured gene product as a stand-in for the process of interest.)

The subject of assay [2] is other LuxR-type receptors. The following applies: ref 7j; cited from earlier work.
The target of assay [3] is T1, RpaR. Put plainly: Competitive RpaR antagonism reporter gene assay against p-cAHL. The following applies: for Percent inhibition: 1 μM synthetic ligand against p-cAHL at its EC50 value (1 nM), negative values indicate agonistic responses, error < ±10%. The assay is classed as cell-based.
Assay [4] deals with LuxR. The following applies: V. fischeri LuxR; ref 7j, 7l; cited from earlier work.
Assay [5] concerns the target T1, RpaR. The following applies: extracts from wild-type R. palustris grown with the aromatic acid; cited from earlier work.

Here are results for 18 molecules from paper PMC3905461 (Chembiochem : a European journal of chemical biology, 2013).

Broadly, the EC50 is the concentration giving half of the maximal effect. A higher EC50 goes with a need for much substance. The term IC50 denotes the concentration that inhibits the measured activity by half. A high value points to weaker potency in that assay.

Several values for one entry are separate records, joined by “and”; a condition that tells them apart may be missing. Equal entries are not always repeated.

T1 sequence (Q6NCZ5 whole entry): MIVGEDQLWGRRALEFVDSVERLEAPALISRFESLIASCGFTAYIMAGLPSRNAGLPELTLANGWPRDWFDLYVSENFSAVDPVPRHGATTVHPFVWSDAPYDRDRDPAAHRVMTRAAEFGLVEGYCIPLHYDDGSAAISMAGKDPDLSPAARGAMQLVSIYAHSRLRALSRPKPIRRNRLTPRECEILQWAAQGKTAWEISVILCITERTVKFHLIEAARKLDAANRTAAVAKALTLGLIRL

On to `O=C(/C=C/c1ccccc1)N[C@H]1CCOC1=O` [Compound B10, cinnamoyl HL], for which, in assay [1], a half-maximal effect (EC50) was put at 0.0323 µM and the activation at 1 µM was found to be 65%.
The corresponding values for `O=C(/C=C/c1ccccc1O)N[C@H]1CCOC1=O` [Compound 15, ortho-cAHL] are 1.17 µM and 59%.
`O=C(/C=C/c1ccc(F)cc1)N[C@H]1CCOC1=O` [Compound 3, 4-fluoro cinnamoyl HL]: the “Agonistic activity at 1 μM” value in assay [1] (1 μM) was “inactive”. Further, the Percent activation in assay [1] was 1%.
As for `O=C(CCc1ccc(O)cc1)N[C@H]1CCOC1=O` [Compound 19], in assay [1], the EC50 worked out at 0.532 µM and the activation at 1 µM was 72%. For the same molecule, in assay [1] (relative to p-cAHL), the “EC50 value higher than p-cAHL” value was determined as 500 fold.
Take `O=C(COc1ccccc1)N[C@H]1CCOC1=O` [Compound E14, POHL]: the “Activity as agonist or antagonist in other LuxR-type receptors” value in assay [2] is “largely inactive”.
Regarding `O=C(/C=C/c1c(F)cccc1F)N[C@H]1CCOC1=O` [Compound 4, 2,6-difluoro cinnamoyl HL], in assay [1], the response was half-maximal at 0.0048 µM (EC50) and the activation at 1 µM was found to be 101%.
In the same order, the values of `O=C(/C=C/c1ccccc1F)N[C@H]1CCOC1=O` [Compound 1, 2-fluoro cinnamoyl HL] are 0.0034 µM and 99%.
In assay [3], `O=C(CCc1ccc([N+](=O)[O-])cc1)N[C@H]1CCOC1=O` [Compound E37, 4-NO2 PPHL] came in with an IC50 of 0.235 µM and a Percent inhibition of 89%. Besides, the “LuxR antagonism” value in assay [4] is “strong antagonists”.
Regarding `O=C(CCC1CCCCC1)N[C@H]1CCOC1=O` [Compound B11, cyclohexyl HL], in assay [4], the “LuxR antagonism” value is “strong antagonists”.
On to `O=C(/C=C/c1ccccc1Br)N[C@H]1CCOC1=O` [Compound 10, 2-bromo cinnamoyl HL], for which, in assay [1], a half-maximal response (EC50) required 0.0771 µM, the “Drop in agonistic activity relative to 1” value is ~ 20 fold and the activation at 1 µM came out at 118%.
As to `O=C(/C=C/c1ccc(O)cc1)N[C@H]1CCOC1=O` [p-cAHL, p-coumaroyl HL, reference compound], the EC50 in assay [1] was 0.001 µM and ~0.001 µM.
On to `O=C(COc1cccc([N+](=O)[O-])c1)N[C@H]1CCOC1=O` [Compound E25, 3-NO2 POHL], for which, in assay [3], the IC50 was found to be 0.238 µM and the Percent inhibition worked out at 63%. Besides, the “LuxR antagonism” value in assay [4] is “strong antagonists”.
In turn, `O=C(/C=C/c1ccc(O)c(O)c1)N[C@H]1CCOC1=O` [Compound 17, caffeoyl HL] came in with a Percent activation in assay [1] of 14%.
With `O=C(/C=C/c1cccc(F)c1)N[C@H]1CCOC1=O` [Compound 2], in assay [1], a half-maximal response (EC50) required 0.0656 µM, the “Drop in agonistic activity relative to 1” value is 20 fold and the activation at 1 µM was 84%.
For `O=C(CCc1ccc(F)cc1)N[C@H]1CCOC1=O` [Compound E29, 4-F PPHL], in assay [3], the IC50 worked out at 0.3 µM and the Percent inhibition is reported as 70%. In assay [4], the “LuxR antagonism” value is given as “strong antagonists”.
Take `O=C(/C=C/c1cccc(O)c1)N[C@H]1CCOC1=O` [Compound 16, meta-cAHL]: in assay [1], a half-maximal effect (EC50) was put at 0.144 µM and the activation at 1 µM was 94%.
In assay [3], `O=C(CCc1ccc2c(c1)OCO2)N[C@H]1CCOC1=O` [Compound E39, 1,3-benzodioxole PPHL] returned an IC50 of 0.228 µM and a Percent inhibition of 63%.
Turning to `COc1cc(C=CC(=O)NC2CCOC2=O)ccc1O` (stereo not shown) [Compound 18], the “RpaR agonist activity” value in assay [5] was “inactive”.
